# According to patent publication US5801260A, “Carbonothioate phospholipid analogs as substrate of phospholipases and lipases” (priority 1995, dated 1998):
# Tests used:
# [1] = biological target: T1, cobra venom phospholipase A2 (Naja atra, UniProt P00598); experiment: Inhibition of phospholipase A2 by a reversible inhibitor, carbonothioate assay; type: biochemical; settings: substrate 1-decanoyl-2-octylcarbonothioyl-sn-glycero-3-phosphocholine 0.5 mM, standard buffer with 4.24 mM Triton X-100; inhibitor 1 μM to 20 μM; FIG. 8
# T1 construct: cobra venom phospholipase A2 (Naja naja atra); from tissue; host or cells: venom of Naja naja atra
# Procedure: (§1) (b) Method: The desired amount of carbonothioate phospholipid in methylene chloride was evaporated to dryness under a stream of nitrogen. An appropriate volume of buffer A is added. This solution was sonicated in a bath sonicator to clearness. The assay was carried out at 40° C. A cuvette, containing 0.3 mL of assay mixture and 5 μL of DTNB was placed in the compartment of a spectrophotometer thermostated at 40° C. After equilibration of the substrate for 2 min at 40° C., a stable baseline was recorded for 150 sec. To initiate the reaction, cobra venom phospholipase A2 (Naja naja atra) (5 μL containing 125 ng protein in buffer B) was added to the cuvette and the reaction was recorded spectrophotometrically at 412 nm for 150 sec. The phospholipase activity is calculated using the extinction coefficient of 12,000 M^-1 cm^-1. Between each run, the cuvette is rinsed with Clorox, water and acetone.
# Method: The appropriate volume of carbonothioate phospholipid in methylene chloride was dried under a stream of nitrogen. […] The enzymatic activity was determined similarly to Example 5 except that 500 ng enzyme was used.
# A solution of 1-decanoyl-2-octylcarbonothioyl-sn-glycero-3-phosphocholine (1.0 mM) in buffer C was prepared as in Example 6. […] The enzymatic activity in the presence of the amide analog was determined as in Example 6.
# [2] = biological target: T1, cobra venom phospholipase A2; experiment: Inactivation of phospholipase A2 by an irreversible inhibitor, carbonothioate assay of residual activity; type: biochemical; settings: enzyme preincubated with 100 μM inhibitor at 40° C.; substrate 1-decanoyl-2-octylcarbonothioyl-sn-glycero-3-phosphocholine 0.5 mM, 4.24 mM Triton X-100; FIG. 9
# Procedure: as §1
# Method: The appropriate volume of carbonothioate phospholipid in methylene chloride was dried under a stream of nitrogen. To prepare mixed micelles, the appropriate volume of buffer C was added, and the volume was brought to the final volume with buffer B. This solution was bath-sonicated to obtain a clear solution. The enzymatic activity was determined similarly to Example 5 except that 500 ng enzyme was used. […]
# T1 sequence (P00598 28-146 limits assumed): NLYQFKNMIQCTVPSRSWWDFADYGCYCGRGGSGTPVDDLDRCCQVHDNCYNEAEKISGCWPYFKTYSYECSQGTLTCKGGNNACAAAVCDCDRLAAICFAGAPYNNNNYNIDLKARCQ
Compound,inhibition of cobra venom phospholipase A2 as determined by the carbonothioate assay [1],inhibition of cobra venom phospholipase A2 as followed by the carbonothioate assay [2]
"CCCCCCCCCCCCCCCCSC[C@H](COP(=O)([O-])OCC[N+](C)(C)C)NC(=O)CCCCCCCCCCCCCCC [amide substrate analogs, 1-hexadecyl-thio-2-hexadecanoylamino-1,2-dideoxy-sn-glycero-3-phosphocholine]",inhibition,
CCCCCCCCCC(=O)OCC(COP(=O)([O-])OCC[N+](C)(C)C)OC(=O)CC(C)(C)CC(=O)Oc1ccc([N+](=O)[O-])cc1 (centres unmarked) [irreversible inhibitor],,time-dependent inhibition
